From ChEMBL document CHEMBL3991601, “The target landscape of clinical kinase drugs” (Science, 2017)
Where a name gives a salt, the structure may show the parent alone. Activity calls are given as the source filed them. Rule as the data show it, for most assays here: actives have a measured Kd and inactives only a lower limit.

Assays:
[1] = target: T1, Mitogen-activated protein kinase kinase kinase 3 (Homo sapiens, UniProt Q99759)
T1 sequence (Q99759 whole entry): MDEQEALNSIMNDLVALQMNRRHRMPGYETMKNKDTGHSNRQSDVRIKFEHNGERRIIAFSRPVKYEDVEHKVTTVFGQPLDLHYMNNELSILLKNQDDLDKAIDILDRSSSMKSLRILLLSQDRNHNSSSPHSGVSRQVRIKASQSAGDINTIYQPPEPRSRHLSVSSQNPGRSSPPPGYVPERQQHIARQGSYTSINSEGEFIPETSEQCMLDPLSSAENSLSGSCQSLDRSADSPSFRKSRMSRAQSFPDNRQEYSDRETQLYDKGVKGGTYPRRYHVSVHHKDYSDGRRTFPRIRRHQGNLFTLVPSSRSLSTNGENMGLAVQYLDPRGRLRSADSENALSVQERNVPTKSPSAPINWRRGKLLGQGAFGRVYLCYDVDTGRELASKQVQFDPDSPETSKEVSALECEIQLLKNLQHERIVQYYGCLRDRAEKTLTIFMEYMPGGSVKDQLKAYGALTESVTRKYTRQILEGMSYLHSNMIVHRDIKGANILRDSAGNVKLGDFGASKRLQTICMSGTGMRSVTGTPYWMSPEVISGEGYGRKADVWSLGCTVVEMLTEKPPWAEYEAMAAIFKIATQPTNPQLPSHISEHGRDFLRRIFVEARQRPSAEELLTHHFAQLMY

[2] = target: S-adenosylmethionine synthase isoform type-2 (Homo sapiens, UniProt P31153)
[3] = target: Ribosomal protein S6 kinase alpha-6 (Homo sapiens, UniProt Q9UK32)
[4] = target: Elongation factor Tu, mitochondrial (Homo sapiens, UniProt P49411)
[5] = target: T2, Serine/threonine-protein kinase TAO1 (Homo sapiens, UniProt Q7L7X3)
T2 sequence (Q7L7X3 whole entry): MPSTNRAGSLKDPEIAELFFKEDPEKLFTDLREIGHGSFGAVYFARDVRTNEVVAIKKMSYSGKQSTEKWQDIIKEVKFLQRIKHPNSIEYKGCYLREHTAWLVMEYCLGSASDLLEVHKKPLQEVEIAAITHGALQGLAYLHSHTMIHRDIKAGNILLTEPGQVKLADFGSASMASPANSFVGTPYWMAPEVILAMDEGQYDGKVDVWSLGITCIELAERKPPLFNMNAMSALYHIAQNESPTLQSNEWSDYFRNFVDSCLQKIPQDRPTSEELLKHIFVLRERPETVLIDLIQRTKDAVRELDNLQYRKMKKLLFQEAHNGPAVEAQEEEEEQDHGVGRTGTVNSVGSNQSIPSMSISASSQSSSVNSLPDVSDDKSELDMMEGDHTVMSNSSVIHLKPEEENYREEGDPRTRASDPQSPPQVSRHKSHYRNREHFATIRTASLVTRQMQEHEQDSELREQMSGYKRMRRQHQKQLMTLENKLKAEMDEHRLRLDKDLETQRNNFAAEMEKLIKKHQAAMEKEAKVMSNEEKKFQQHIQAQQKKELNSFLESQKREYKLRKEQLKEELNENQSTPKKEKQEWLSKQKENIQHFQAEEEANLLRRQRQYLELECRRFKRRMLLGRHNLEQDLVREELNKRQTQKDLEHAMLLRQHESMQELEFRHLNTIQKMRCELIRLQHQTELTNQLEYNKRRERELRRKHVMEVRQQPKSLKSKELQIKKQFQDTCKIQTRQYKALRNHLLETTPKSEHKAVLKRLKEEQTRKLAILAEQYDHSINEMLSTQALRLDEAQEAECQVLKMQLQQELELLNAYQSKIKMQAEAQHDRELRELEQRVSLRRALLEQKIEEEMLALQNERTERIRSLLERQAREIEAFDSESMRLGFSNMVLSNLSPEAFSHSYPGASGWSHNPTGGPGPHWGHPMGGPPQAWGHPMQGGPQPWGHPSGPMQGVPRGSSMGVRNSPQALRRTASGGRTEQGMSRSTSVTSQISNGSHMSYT

[6] = target: T3, Serine/threonine-protein kinase D3 (Homo sapiens, UniProt O94806)
T3 sequence (O94806 whole entry): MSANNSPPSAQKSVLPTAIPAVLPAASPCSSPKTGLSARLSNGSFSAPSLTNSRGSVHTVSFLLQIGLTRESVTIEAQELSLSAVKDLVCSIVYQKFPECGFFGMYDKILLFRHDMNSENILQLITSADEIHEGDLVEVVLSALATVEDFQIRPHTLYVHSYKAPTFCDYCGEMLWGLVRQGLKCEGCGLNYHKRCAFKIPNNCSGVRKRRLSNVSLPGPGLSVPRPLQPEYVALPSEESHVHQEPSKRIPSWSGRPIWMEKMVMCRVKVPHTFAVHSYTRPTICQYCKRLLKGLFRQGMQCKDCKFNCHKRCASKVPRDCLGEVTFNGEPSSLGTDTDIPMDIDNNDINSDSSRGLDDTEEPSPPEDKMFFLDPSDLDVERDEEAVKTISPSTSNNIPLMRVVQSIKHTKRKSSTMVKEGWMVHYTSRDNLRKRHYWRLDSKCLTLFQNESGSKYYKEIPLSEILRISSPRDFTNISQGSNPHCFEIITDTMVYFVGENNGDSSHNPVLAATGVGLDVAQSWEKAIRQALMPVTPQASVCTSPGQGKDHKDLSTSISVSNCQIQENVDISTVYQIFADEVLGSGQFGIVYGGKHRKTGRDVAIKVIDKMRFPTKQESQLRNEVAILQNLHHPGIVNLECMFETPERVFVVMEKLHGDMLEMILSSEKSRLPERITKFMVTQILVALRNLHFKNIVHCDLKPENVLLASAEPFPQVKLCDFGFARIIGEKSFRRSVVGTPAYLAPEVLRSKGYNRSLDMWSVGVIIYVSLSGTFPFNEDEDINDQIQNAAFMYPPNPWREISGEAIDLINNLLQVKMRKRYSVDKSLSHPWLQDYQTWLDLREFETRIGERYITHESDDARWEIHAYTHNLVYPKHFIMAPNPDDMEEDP

[7] = target: T4, dCTP pyrophosphatase 1 (Homo sapiens, UniProt Q9H773)
T4 sequence (Q9H773 whole entry): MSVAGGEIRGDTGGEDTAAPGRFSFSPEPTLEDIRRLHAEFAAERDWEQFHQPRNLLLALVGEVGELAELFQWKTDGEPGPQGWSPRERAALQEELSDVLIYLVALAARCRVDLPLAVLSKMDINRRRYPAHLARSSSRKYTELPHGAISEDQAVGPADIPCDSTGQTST

[8] = target: Calcium/calmodulin-dependent protein kinase type II subunit delta (Homo sapiens, UniProt Q13557)
[9] = target: LIM domain kinase 2 (Homo sapiens, UniProt P53671)
Also: in the data inactive means no Kd found up to 30 µM.

Chain of LIM domain kinase 2 (P53671 whole entry, the tested form may be a part): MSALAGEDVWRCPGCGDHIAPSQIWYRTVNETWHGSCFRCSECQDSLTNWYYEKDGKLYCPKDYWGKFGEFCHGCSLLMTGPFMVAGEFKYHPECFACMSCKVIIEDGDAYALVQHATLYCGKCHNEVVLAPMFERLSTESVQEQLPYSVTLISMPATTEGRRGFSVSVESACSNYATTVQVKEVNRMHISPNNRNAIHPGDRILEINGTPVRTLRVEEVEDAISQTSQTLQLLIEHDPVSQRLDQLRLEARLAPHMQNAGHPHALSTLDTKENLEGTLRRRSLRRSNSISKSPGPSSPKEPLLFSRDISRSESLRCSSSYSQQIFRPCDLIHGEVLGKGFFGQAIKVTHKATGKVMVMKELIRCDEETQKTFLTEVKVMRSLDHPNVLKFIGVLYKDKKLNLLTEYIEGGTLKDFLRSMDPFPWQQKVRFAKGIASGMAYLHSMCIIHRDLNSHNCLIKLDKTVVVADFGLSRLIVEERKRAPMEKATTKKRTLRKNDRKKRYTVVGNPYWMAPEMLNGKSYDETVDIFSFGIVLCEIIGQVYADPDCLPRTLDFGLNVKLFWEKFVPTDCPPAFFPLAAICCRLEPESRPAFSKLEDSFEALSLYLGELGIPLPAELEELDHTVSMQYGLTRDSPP
Chain of Ribosomal protein S6 kinase alpha-6 (Q9UK32 whole entry): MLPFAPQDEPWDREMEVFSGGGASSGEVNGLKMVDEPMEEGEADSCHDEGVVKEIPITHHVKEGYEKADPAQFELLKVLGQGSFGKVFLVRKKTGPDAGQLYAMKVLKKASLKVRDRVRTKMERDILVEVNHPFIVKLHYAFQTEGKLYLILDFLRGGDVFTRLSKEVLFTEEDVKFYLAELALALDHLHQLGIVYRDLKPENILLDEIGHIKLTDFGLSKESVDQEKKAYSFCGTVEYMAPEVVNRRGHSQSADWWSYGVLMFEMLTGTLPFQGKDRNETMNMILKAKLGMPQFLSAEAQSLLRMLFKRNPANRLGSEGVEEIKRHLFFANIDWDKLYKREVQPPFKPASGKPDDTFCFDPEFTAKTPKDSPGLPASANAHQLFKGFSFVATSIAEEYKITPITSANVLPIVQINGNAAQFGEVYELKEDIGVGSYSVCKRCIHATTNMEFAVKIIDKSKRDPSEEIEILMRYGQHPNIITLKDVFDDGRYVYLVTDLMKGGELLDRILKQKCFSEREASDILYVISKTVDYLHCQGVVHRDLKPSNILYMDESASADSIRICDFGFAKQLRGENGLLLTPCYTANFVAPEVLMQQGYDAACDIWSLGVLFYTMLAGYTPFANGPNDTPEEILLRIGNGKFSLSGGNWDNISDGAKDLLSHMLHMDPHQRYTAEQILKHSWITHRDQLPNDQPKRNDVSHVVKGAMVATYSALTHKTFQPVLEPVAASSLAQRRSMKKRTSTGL
Chain of Calcium/calmodulin-dependent protein kinase type II subunit delta (Q13557 whole entry, the tested form may be a part): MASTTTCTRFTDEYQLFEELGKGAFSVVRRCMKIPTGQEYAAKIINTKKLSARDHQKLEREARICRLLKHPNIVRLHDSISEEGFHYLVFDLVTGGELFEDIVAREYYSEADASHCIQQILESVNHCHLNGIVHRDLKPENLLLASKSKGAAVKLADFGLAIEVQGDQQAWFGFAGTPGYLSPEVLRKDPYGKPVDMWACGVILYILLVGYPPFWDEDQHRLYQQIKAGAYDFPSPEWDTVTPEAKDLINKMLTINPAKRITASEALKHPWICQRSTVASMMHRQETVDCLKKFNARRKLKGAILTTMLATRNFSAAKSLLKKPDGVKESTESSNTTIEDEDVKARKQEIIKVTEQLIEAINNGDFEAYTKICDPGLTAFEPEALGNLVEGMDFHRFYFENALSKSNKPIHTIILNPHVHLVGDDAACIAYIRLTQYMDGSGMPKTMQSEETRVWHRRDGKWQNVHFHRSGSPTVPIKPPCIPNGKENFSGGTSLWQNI
Chain of S-adenosylmethionine synthase isoform type-2 (P31153 whole entry, canonical isoform): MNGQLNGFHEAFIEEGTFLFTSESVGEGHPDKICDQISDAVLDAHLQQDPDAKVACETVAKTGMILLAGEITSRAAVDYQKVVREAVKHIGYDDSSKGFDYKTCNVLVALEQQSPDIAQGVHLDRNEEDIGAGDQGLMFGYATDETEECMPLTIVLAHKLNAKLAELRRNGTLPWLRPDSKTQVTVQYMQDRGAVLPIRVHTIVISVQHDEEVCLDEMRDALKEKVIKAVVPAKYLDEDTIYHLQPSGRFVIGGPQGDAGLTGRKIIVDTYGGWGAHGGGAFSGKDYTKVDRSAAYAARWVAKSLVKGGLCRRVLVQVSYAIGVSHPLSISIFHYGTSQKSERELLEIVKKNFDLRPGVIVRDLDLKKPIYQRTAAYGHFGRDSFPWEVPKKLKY

## CCn1c(C(=O)N(C2CC2)C2CC2)cc2c3c(ncn3C)c(Nc3cc(C)n(C)n3)nc21 [BMS-911543]
[1]
  Kd: > 30 µM (inactive)
[2]
  Kd: > 30 µM (inactive)
[3]
  Kd: > 30 µM (inactive)
[4]
  Kd: > 30 µM (inactive)
[5]
  Kd: > 30 µM (inactive)
[6]
  Kd: > 30 µM (inactive)
[7]
  Kd: > 30 µM (inactive)
[8]
  Kd: > 30 µM (inactive)
[9]
  Kd: > 30 µM (inactive)

## COc1cc2ncnc(Oc3cccc(NC(=O)Nc4cc(C(C)(C)C(F)(F)F)on4)c3)c2cc1OC [CEP-32496]
[1]
  Kd: > 30 µM (inactive)
[2]
  Kd: > 30 µM (inactive)
[3]
  Kd: > 30 µM (inactive)
[4]
  Kd: > 30 µM (inactive)
[5]
  Kd: > 30 µM (inactive)
[6]
  Kd: > 30 µM (inactive)
[7]
  Kd: > 30 µM (inactive)
[8]
  Kd: > 30 µM (inactive)
[9]
  Kd: > 30 µM (inactive)

## Cc1cc(Nc2ncc(Cl)c(Nc3ccccc3S(=O)(=O)C(C)C)n2)c(OC(C)C)cc1C1CCNCC1 [CERITINIB]
[1]
  Kd: > 30 µM (inactive)
[2]
  Kd: > 30 µM (inactive)
[3]
  Kd: > 30 µM (inactive)
[4]
  Kd: > 30 µM (inactive)
[5]
  Kd: > 30 µM (inactive)
[6]
  Kd: > 30 µM (inactive)
[7]
  Kd: > 30 µM (inactive)
[8]
  Kd: > 30 µM (inactive)
[9]
  Kd: > 30 µM (inactive)

## COc1c(OCCCN2CCOCC2)ccc2c1N=C(NC(=O)c1cnc(N)nc1)N1CCN=C21 [COPANLISIB]
[1]
  Kd: > 30 µM (inactive)
[2]
  Kd: > 30 µM (inactive)
[3]
  Kd: > 30 µM (inactive)
[4]
  Kd: > 30 µM (inactive)
[5]
  Kd: > 30 µM (inactive)
[6]
  Kd: > 30 µM (inactive)
[7]
  Kd: > 30 µM (inactive)
[8]
  Kd: > 30 µM (inactive)
[9]
  Kd: > 30 µM (inactive)

## COCC(=O)NC/C=C/c1ccc2ncnc(Nc3ccc(Oc4ccc(C)nc4)c(C)c3)c2c1 [CP-724714]
[1]
  Kd: > 30 µM (inactive)
[2]
  Kd: > 30 µM (inactive)
[3]
  Kd: > 30 µM (inactive)
[4]
  Kd: > 30 µM (inactive)
[5]
  Kd: > 30 µM (inactive)
[6]
  Kd: > 30 µM (inactive)
[7]
  Kd: > 30 µM (inactive)
[8]
  Kd: > 30 µM (inactive)
[9]
  Kd: > 30 µM (inactive)

## C#Cc1cccc(Nc2ncnc3cc(OC)c(OCCCCCCC(=O)NO)cc23)c1 [CUDC-101]
[1]
  Kd: > 30 µM (inactive)
[2]
  Kd: > 30 µM (inactive)
[3]
  Kd: > 30 µM (inactive)
[4]
  Kd: > 30 µM (inactive)
[5]
  Kd: > 30 µM (inactive)
[6]
  Kd: > 30 µM (inactive)
[7]
  Kd: > 30 µM (inactive)
[8]
  Kd: > 30 µM (inactive)
[9]
  Kd: > 30 µM (inactive)

## CCS(=O)(=O)N1CCN(c2ccc(Nc3ncc(C(N)=O)c(NC4CC4)n3)cc2)CC1 [Cerdulatinib Hydrochloride]
[1]
  Kd: 1.09 µM (active)
[2]
  Kd: > 30 µM (inactive)
[3]
  Kd: 0.455 µM (active)
[4]
  Kd: > 30 µM (inactive)
[5]
  Kd: 2.17 µM (active)
[6]
  Kd: 1.06 µM (active)
[7]
  Kd: > 30 µM (inactive)
[8]
  Kd: > 30 µM (inactive)
[9]
  Kd: > 30 µM (inactive)

## Cc1nc2cc(-n3ncc(C(=O)c4cc5ccccc5[nH]4)c3N)ccc2[nH]1 [FGFR INHIBITOR DEBIO 1347]
[1]
  Kd: > 30 µM (inactive)
[2]
  Kd: > 30 µM (inactive)
[3]
  Kd: > 30 µM (inactive)
[4]
  Kd: > 30 µM (inactive)
[5]
  Kd: > 30 µM (inactive)
[6]
  Kd: > 30 µM (inactive)
[7]
  Kd: > 30 µM (inactive)
[8]
  Kd: > 30 µM (inactive)
[9]
  Kd: > 30 µM (inactive)

## O=C(Nc1nc2cccc(-c3ccc(CN4CCS(=O)(=O)CC4)cc3)n2n1)C1CC1 [FILGOTINIB]
[1]
  Kd: > 30 µM (inactive)
[2]
  Kd: > 30 µM (inactive)
[3]
  Kd: > 30 µM (inactive)
[4]
  Kd: > 30 µM (inactive)
[5]
  Kd: > 30 µM (inactive)
[6]
  Kd: > 30 µM (inactive)
[7]
  Kd: > 30 µM (inactive)
[8]
  Kd: > 30 µM (inactive)
[9]
  Kd: > 30 µM (inactive)

## Cc1cccc(-c2nn3c(c2-c2ccnc4ccc(C(N)=O)cc24)CCC3)n1 [GALUNISERTIB]
[1]
  Kd: > 30 µM (inactive)
[2]
  Kd: > 30 µM (inactive)
[3]
  Kd: > 30 µM (inactive)
[4]
  Kd: > 30 µM (inactive)
[5]
  Kd: > 30 µM (inactive)
[6]
  Kd: > 30 µM (inactive)
[7]
  Kd: > 30 µM (inactive)
[8]
  Kd: > 30 µM (inactive)
[9]
  Kd: > 30 µM (inactive)

## COc1ccc(S(=O)(=O)N(C(C)=O)c2ccccc2/C=C/c2cc[n+]([O-])cc2)cc1 [HMN-214]
[1]
  Kd: > 30 µM (inactive)
[2]
  Kd: > 30 µM (inactive)
[3]
  Kd: > 30 µM (inactive)
[4]
  Kd: > 30 µM (inactive)
[5]
  Kd: > 30 µM (inactive)
[6]
  Kd: > 30 µM (inactive)
[7]
  Kd: > 30 µM (inactive)
[8]
  Kd: > 30 µM (inactive)
[9]
  Kd: > 30 µM (inactive)

## O=C(Nc1cc(C(F)(F)F)cc(C(F)(F)F)c1)c1cc(Cl)ccc1O [IMD-0354]
[1]
  Kd: > 30 µM (inactive)
[2]
  Kd: > 30 µM (inactive)
[3]
  Kd: > 30 µM (inactive)
[4]
  Kd: > 30 µM (inactive)
[5]
  Kd: > 30 µM (inactive)
[6]
  Kd: > 30 µM (inactive)
[7]
  Kd: > 30 µM (inactive)
[8]
  Kd: > 30 µM (inactive)
[9]
  Kd: > 30 µM (inactive)

## CNC(=O)c1cccc2cc(Oc3ccnc4cc(OCC5(N)CC5)c(OC)cc34)ccc12 [LUCITANIB]
[1]
  Kd: > 30 µM (inactive)
[2]
  Kd: > 30 µM (inactive)
[3]
  Kd: > 30 µM (inactive)
[4]
  Kd: > 30 µM (inactive)
[5]
  Kd: > 30 µM (inactive)
[6]
  Kd: > 30 µM (inactive)
[7]
  Kd: > 30 µM (inactive)
[8]
  Kd: > 30 µM (inactive)
[9]
  Kd: > 30 µM (inactive)

## NC1(c2ccc(-c3nc4ccn5c(=O)[nH]nc5c4cc3-c3ccccc3)cc2)CCC1 [MK-2206]
[1]
  Kd: > 30 µM (inactive)
[2]
  Kd: > 30 µM (inactive)
[3]
  Kd: > 30 µM (inactive)
[4]
  Kd: > 30 µM (inactive)
[5]
  Kd: > 30 µM (inactive)
[6]
  Kd: > 30 µM (inactive)
[7]
  Kd: > 30 µM (inactive)
[8]
  Kd: > 30 µM (inactive)
[9]
  Kd: > 30 µM (inactive)
